Test results reported in PubChem BioAssay AID2495 (Sanford-Burnham Center for Chemical Genomics, 2010).

Biological target: Kappa-type opioid receptor (Homo sapiens) (UniProt P41145)
Assay: KOR antagonist analogs, beta-arrestin recruitment, SAR follow-up, cell-based, luminescence, set 2 (AID 2495)
Settings: antagonist mode

Kappa-type opioid receptor (Homo sapiens), sequence (P41145 whole entry, looked up): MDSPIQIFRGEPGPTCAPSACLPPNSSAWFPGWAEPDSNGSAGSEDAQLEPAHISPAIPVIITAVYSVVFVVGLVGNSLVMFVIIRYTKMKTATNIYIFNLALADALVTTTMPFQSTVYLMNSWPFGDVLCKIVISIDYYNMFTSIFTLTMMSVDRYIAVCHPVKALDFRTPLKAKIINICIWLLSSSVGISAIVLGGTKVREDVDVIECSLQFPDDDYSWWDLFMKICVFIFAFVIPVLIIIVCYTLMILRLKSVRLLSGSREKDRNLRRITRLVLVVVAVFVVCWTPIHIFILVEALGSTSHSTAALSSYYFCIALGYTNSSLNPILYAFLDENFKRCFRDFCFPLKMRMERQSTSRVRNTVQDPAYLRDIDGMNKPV

IC50: 1120 nM
SMILES: CCc1ccc(S(=O)(=O)NCc2ccc(C(=O)NCCN(Cc3ccccc3)C(C)C)cc2)cc1
